Laboratory results taken from patent publication US20150093335A1, “CELL-TARGETED MAGNETIC NANO-MATERIAL AND BIOMEDICAL USES THEREOF” (Institute of Geology and Geophysics, Chinese Academy of …, priority 2012, published 2015).
Where a name gives a salt, the structure may show the parent alone.

How the values were obtained:
NCI-H460 lung cancer = assay: Treatment experiment on lung cancer in vivo
U87MG human glioma = assay: 4.7T MRI of in-situ glioma; assay type: in vivo, nude mouse; conditions: 0.1 mmol/kg tail vein, scanned 2 hours, glioma about 1-2 mm
Procedure: 10^6 U87MG human glioma cells (purchased from ATCC, cultivated at Nanjing KeyGEN BioTECH development Ltd.) are inoculated onto the cerebral cortex of a nude mouse by in-situ penetration through the cranium and its tympanic membrane slightly off the median line of the cerebrum. Magnetic resonance imaging is conducted after about 3-4 days. The nude mouse is anesthetized by respiratory anesthesia and an intravenous needle is detained in tail vein. The mouse is put into a 4.7T MRI system and stays in stationary state in the course of magnetic resonance scanning. The commercialized Gd-DTPA contrast agent (magnevist, produced by Bayer Corp.) is first injected through tail vein as reference (injection dosage: 0.1 mmol/kg) and is scanned continuously for 2 hours in the magnetic resonance chamber. After the Gd-DTPA is completely metabolized and excreted, human H-subunit magnetoferritin is injected through tail vein (injection dosage: 20 mg Fe/kg mouse weight) and is scanned continuously for 3 hours. […]
Purified human H-subunit ferritin is partially or totally denatured using denaturant such as guanidine hydrochloride (1-7 M) or urea (2-8 M) etc. such that the subunits are partially or totally depolymerized. […] Protein quantification is conducted using BCA protein quantification reagent kit. The number of Gd atoms encapsulated in a single protein molecule is measured using ICP-MS. […]

[1] = Longitudinal (r1) and transversal relaxivity measurement of gadolinium materials, 4.7T MRI; assay type: physicochemical; conditions: per gadolinium concentration 0-1 mM
Text: Gd contrast agents in clinical use can enhance the signal intensity of the lesion area during T1-weighted magnetic resonance imaging, thus showing a bright area. Since human naked eye is more sensitive to bright matters, these contrast agents can better meet the needs of human naked eye. But Gd contrast agents in clinical use have no targeting feature and have a low relaxation rate, thus failing to meet the needs for early diagnosis of diseases such as tumors. In the present invention, a tumor-targeted ferritin shell is used, and in the cavity thereof a gadolinium-iron nano-material is formed by biomimetic mineralization. By using purified human H-subunit ferritin as a template, a ferrous salt, a gadolinium salt and oxidant hydrogen peroxide are added into a solution of recombinant human ferritin, controlling the pH at 8.5 and the temperature at 65° C. […] The numbers of iron atoms and gadolinium atoms are measured through inductively coupled plasma mass spectrometry. The longitudinal relaxivity (r1) and transversal relaxivity (r2) of the material are measured using a 4.7T magnetic resonance imaging system. […]

longitudinal relaxivity r1 [1]	SMILES	tumor volume difference versus PBS control group (NCI-H460 lung cancer; 8 days after administration, doxorubicin 3 mg/kg every 3 days)	average tumor inhibition rate (NCI-H460 lung cancer; tumor weights, doxorubicin 3 mg/kg tail vein every 3 days, 15 days, 3 mice per group)	T1-weighted MRI signal intensity of the glioma area after injection (U87MG human glioma)
	COc1cccc2c1C(=O)c1c(O)c3c(c(O)c1C2=O)C[C@@](O)(C(=O)CO)C[C@@H]3O[C@H]1C[C@H](N)[C@H](O)[C@H](C)O1 [doxorubicin hydrochloride]	minute difference	23%	
about 5.9 mM^−1S^−1	O=C([O-])CN(CCN(CC(=O)[O-])CC(=O)O)CCN(CC(=O)[O-])CC(=O)O.[Gd+3] [Gd-DTPA]			no evident change
